Measurements from paper PMC6321136, “Combined In Vitro Studies and in Silico Target Fishing for the Evaluation of the Biological Activities of Diphylleia cymosa and Podophyllum hexandrum” (Molecules, 2018).
In brackets after ≈: the same amount, converted by molar mass. Read-outs that look alike come from different tables or passages of the source.

Columns and labels:
[1] = target: T1, acetylcholinesterase enzyme (Electropardus electricous type VI-S) (Electrophorus electricus, UniProt O42275); assay: AChE bioautographic assay (TLC); assay type: biochemical; set-up: key: -: not active; +: slight inhibition; ++++: strong inhibition; conditions: intensity of white bands
T1 construct: purchased Sigma-Aldrich, St. Louis, MO, USA type VI-S (catalogue number not given)
T1 sequence (O42275 24-633): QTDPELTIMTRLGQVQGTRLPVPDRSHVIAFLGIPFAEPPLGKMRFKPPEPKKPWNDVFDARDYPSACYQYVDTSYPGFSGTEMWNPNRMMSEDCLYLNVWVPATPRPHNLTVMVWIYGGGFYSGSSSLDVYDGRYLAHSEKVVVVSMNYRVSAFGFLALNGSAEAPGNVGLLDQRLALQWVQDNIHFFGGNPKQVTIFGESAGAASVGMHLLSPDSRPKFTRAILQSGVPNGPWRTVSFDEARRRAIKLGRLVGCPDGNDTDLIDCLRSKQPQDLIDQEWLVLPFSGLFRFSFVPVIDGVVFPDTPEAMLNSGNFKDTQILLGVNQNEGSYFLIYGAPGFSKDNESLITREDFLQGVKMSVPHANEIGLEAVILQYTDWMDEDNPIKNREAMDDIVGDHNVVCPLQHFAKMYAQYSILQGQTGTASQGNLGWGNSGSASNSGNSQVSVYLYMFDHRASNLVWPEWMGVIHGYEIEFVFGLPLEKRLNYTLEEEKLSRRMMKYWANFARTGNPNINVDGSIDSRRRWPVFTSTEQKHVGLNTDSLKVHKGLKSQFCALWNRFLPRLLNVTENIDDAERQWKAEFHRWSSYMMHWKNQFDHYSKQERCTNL
Procedure: The bioautographic assay was performed by thin layer chromatography (TLC) according to the method proposed by Marston, Kissling and Hostettman. The extracts were solubilized in methanol (Merck) at 20 mg/mL, and a portion of 10 μL of this solution was applied on a TLC plate (silica gel 60 F254, Merck, Darmstadt, Germany), which was eluted with CHCl3:MeOH (9:1). The acetylcholinesterase enzyme (Electropardus electricous type VI-S, Sigma-Aldrich, St. Louis, MO, USA) solution was prepared by diluting 1 KU of the enzyme in 30 mL of Tris/HCl buffer, pH 7.8, with the addition of 30 mg of bovine serum albumin (BSA). The enzyme solution was sprayed on the TLC plate and incubated in a humid chamber at 37 °C for 20 min. The substrate solution was prepared using 1-naphthyl acetate (2.5 mg/mL) and Fast Blue B salt (2.5 mg/mL), and sprayed on the TLC plate after the incubation period. […] The result was expressed by the intensity of the white bands observed.

[2] = Cytotoxicity in THP-1 cells, SRB method; assay type: cell-based; conditions: human, THP-1 cells (PMA-treated, adherent)
Procedure: The assay was performed following the sulforhodamine B (SRB) method. THP-1 cells (acute human monocytic leukemia cells, ATCC TIB-202) were cultured in a RPMI medium supplemented with 10% fetal bovine serum. A cell suspension was prepared at the density of 1 × 10^6 cells/mL with 2 μL of PMA (phorbol myristyl acetate, Sigma, St. Louis, MO, USA, 30 µg/mL). A portion of 100 μL of this suspension was transferred to the wells of a microplate. The plate was incubated at 37 °C, in a 5% CO2 atmosphere, for about 12 to 16 h to allow cells to adhere. After that, 100 μL of each sample (400, 200, 100, 50 and 25 μg/mL) were added to the wells. The plate was then incubated at 37 °C for 18 h. After incubation, 100 μL of cold trichloroacetic acid (TCA, 10%) solution was added in each well. The plate was incubated at 4 °C for 1 h. The supernatant was discarded and the wells were washed three times with 200 μL of distilled water. Then, the wells were allowed to dry for 24 h. […] The plate was then stirred for 5 min inside the microplate reader. The optical density was measured at 510 nm in a microplate reader. […] Cell viability was calculated according to the formula (A − B/C − B) × 100, where A, B and C corresponds to the absorbance measured for the samples, blank and negative control, respectively. […]

[3] = set-up: method as in Dar et al. [63]; conditions: ref Dar et al. [63]; cited from earlier work
[4] = tested on: Activators, heat shock response; set-up: method as in PubChem Bioassay AID 743228; conditions: ref PubChem Bioassay AID 743228; cited from earlier work
[5] = tested on: ADMET, Cytochrome P450 3A4; set-up: method as in PubChem Bioassay AID 885; conditions: ref PubChem Bioassay AID 885; cited from earlier work
[6] = tested on: Agonist, endoplasmic reticulum stress response; set-up: method as in PubChem Bioassay AID 1159519; conditions: ref PubChem Bioassay AID 1159519; cited from earlier work
[7] = tested on: Agonist, retinoic acid receptor (RAR); set-up: method as in PubChem Bioassay AID 1159553; conditions: ref PubChem Bioassay AID 1159553; cited from earlier work
[8] = tested on: Agonist, thyroid receptor (TR); set-up: method as in PubChem Bioassay AID 743066; conditions: ref PubChem Bioassay AID 743066; cited from earlier work
[9] = tested on: Agonist, thyroid stimulating hormone receptor (TSHR); set-up: method as in PubChem Bioassay AID 1224895; conditions: ref PubChem Bioassay AID 1224895; cited from earlier work
[10] = tested on: Antagonist, retinoid-related orphan receptor gamma (ROR-gamma); set-up: method as in PubChem Bioassay AID 1159523; conditions: ref PubChem Bioassay AID 1159523; cited from earlier work
Anticancer, colon = tested on: Anticancer, colon; set-up: method as in PubChem Bioassay AID 1834; conditions: ref PubChem Bioassay AID 1834; cited from earlier work
Anticancer, Yes1 kinase = tested on: Anticancer, Yes1 kinase; set-up: method as in PubChem Bioassay AID 686947; conditions: ref PubChem Bioassay AID 686947; cited from earlier work
Anti-Inflammatory model [11] = tested on: Anti-Inflammatory model; set-up: method as in PubChem Bioassay AID 489033; conditions: ref PubChem Bioassay AID 489033; cited from earlier work
Anti-Inflammatory model [12] = tested on: Anti-Inflammatory model; set-up: method as in PubChem Bioassay AID 489035; conditions: ref PubChem Bioassay AID 489035; cited from earlier work
[13] = tested on: Anti-Inflammatory model (counterscreen); set-up: method as in PubChem Bioassay AID 1318; conditions: ref PubChem Bioassay AID 1318; cited from earlier work
[14] = tested on: Chlamydomonas reinhardtii Algae Gravitaxis; set-up: method as in PubChem Bioassay AID 463189; conditions: ref PubChem Bioassay AID 463189; cited from earlier work
[15] = tested on: Cytotoxicity, Agonist, antioxidant response element (ARE); set-up: method as in PubChem Bioassay AID 743203; conditions: ref PubChem Bioassay AID 743203; cited from earlier work
[16] = tested on: Cytotoxicity, Antagonist, androgen receptor (AR); set-up: method as in PubChem Bioassay AID 743041; conditions: ref PubChem Bioassay AID 743041; cited from earlier work

COc1cc([C@@H]2c3cc4c(cc3[C@H](O)[C@H]3COC(=O)[C@H]23)OCO4)cc(OC)c1OC [Podophyllotoxin, podophyllotoxin]
Inhibition of AChE TLC [1]: -
CC50 at 18 h [2]: 400 ± 10.3 µg/mL (≈ 965 µM)
IC50 DPPH sequestration [3]: higher than 250 μg/mL
Exper. Activity [4]: Inactive
Exper. Activity [5]: Inactive
Exper. Activity [6]: Inactive
Exper. Activity [7]: Inactive
Exper. Activity [8]: Inactive
Exper. Activity [9]: Inactive
Exper. Activity [10]: Active
Exper. Activity (Anticancer, colon): Active
Exper. Activity (Anticancer, Yes1 kinase): Inactive
Exper. Activity (Anti-Inflammatory model [11]): Inactive
Exper. Activity (Anti-Inflammatory model [12]): Inactive
Exper. Activity [13]: Inactive
Exper. Activity [14]: Inactive
Exper. Activity [15]: Inactive
Exper. Activity [16]: Inactive
